Data set [1] addresses T1, human GABAA α5β3γ2s receptor (Homo sapiens, UniProt P18507+P31644).
T1 sequence (P18507 1-475): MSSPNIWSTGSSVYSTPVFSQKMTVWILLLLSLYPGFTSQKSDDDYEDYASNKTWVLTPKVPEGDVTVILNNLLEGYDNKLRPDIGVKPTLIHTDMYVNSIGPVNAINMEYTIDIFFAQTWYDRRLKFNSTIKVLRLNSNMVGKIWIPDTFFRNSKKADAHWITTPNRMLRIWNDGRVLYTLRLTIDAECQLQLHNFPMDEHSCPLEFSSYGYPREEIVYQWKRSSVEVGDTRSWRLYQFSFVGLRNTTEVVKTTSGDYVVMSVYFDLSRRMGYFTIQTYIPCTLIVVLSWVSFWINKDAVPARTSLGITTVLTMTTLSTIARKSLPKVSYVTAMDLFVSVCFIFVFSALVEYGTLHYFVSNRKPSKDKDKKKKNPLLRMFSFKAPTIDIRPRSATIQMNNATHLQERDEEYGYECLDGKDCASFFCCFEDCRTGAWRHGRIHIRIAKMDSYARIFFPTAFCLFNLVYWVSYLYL
T1 sequence (P31644 1-462): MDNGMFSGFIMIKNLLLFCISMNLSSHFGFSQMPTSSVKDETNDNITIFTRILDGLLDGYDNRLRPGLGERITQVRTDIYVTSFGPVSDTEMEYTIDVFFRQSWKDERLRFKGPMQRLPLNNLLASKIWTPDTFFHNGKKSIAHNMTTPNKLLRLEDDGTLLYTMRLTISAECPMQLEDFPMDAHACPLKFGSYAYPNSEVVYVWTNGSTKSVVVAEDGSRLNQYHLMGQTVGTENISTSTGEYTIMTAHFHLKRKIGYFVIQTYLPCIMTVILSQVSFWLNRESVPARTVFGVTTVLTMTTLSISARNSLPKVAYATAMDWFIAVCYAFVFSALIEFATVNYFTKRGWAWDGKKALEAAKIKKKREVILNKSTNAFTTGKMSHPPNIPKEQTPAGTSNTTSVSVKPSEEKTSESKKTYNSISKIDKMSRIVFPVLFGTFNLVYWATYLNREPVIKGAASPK
Put plainly: Assay A: in vitro inhibition of 3H-flumazenil binding, HEK cells expressing human GABAA α5β3γ2s receptor. The conditions noted are these: 3H-flumazenil 1 nM, HEK-293 membranes, 40 min at 2° C.; Ki from IC50 by Cheng and Prusoff. On the procedure:
HEK-293 cell lines with stable expression of recombinant human GABAA α5β3γ2s receptors (plasmid H46/E9/B10) are seeded in T175 polystyrene flasks or roller bottles (1700 cm^2, Fisher Scientific CCI-431191), and cultured (37 C, 5% CO˜) in Dulbecco's Modified Eagle Medium (DMEM) with GlutaMAX™ supplemented with 10% fetal bovine serum and one or both of the following antibiotics: hygromycin B ([…]; γ2 subunit) or G418 (0.5 mg/ml; […]).
When the cultures reach confluency, the DMEM is removed and the cells are washed (10 ml for T175 flasks; 50 ml for roller bottles) once in Dulbecco's Phosphate Buffered Saline (DPBS). Following addition of DPBS to the cultures (10 ml for T175 flasks; 100 ml for roller bottles) for approximately 5 min cells are easily detached from the surface by shaking or tapping the flask gently. The cell suspension is transferred to Falcon tubes and centrifuged at 23,500×g for 10 min at 2° C. The pellet is washed once in 15 ml Tris-citrate buffer (50 mM, pH 7.1) using an Ultra-Turrax homogenizer and centrifuged at 2° C. for 10 min at 27,000×g. The washed pellet is re-suspended in 15 ml Tris-citrate buffer and frozen at −80° C. until the day of the binding experiment.
On the day of the experiment the cell membrane preparation is thawed and centrifuged at 2° C. for 10 min at 27,000×g. The pellet is re-suspended, using an Ultra-Turrax homogenizer in Tris-citrate buffer, to 15-50 µg protein per assay and then used for binding assays.
Non-specific binding is determined using clonazepam (1 μM, final concentration).
All dilutions of test compounds and incubation of assay are performed in glass vials/96-vial plates. […] Compounds are dissolved in 100% DMSO (10 mM stock), diluted in 48% ethanol-water, and tested in triplicate in serial 1:3 or 1:10 dilutions. When screening large numbers of compounds only one concentration of each compound is tested in single wells. Reference compounds are not included routinely, but for each experiment performed total and nonspecific binding is compared to data obtained during validation of the assay.
Binding is either terminated by rapid filtration onto
1) Whatman GF/C glass fibre filters using a Brandel Cell harvester, followed by 5 washes with 1 ml ice-cold buffer or onto 2) UniFilter GF/C glass fibre filter plates using a Tomtec cell harvester, followed by washing with approximately 5 ml ice-cold buffer.
The amount of radioactivity on the filters is determined by conventional liquid scintillation counting using a
1) Tri-Garb™ counter (PerkinElmer Life and Analytical Sciences) for separate large filters or
2) Topcount™ counter (PerkinElmer Life and Analytical Sciences) for 96-well filter plates. Specific binding is total binding minus non-specific binding.
For screening purposes n is set to 1. The IC50 value is calculated from the concentration response curves by the non-linear regression method using the curve-fitting program GraphPad Prism. […]

The target in the next data set is T2, α5β2γ2 GABAA receptor (Homo sapiens, UniProt P18507+P31644).
T2 sequence (P31644 32-462): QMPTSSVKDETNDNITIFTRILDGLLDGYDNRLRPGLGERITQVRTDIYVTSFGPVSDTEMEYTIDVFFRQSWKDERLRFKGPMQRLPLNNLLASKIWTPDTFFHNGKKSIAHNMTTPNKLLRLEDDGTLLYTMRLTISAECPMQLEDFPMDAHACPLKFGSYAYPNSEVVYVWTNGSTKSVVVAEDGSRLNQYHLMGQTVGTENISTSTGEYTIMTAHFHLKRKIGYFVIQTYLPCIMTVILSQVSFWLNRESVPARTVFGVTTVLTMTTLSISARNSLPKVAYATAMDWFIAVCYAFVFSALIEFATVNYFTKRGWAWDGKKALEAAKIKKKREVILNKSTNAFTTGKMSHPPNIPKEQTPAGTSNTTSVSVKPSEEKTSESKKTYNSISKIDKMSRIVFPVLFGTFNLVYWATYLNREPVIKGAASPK
T2 sequence (P18507 40-376 limits assumed): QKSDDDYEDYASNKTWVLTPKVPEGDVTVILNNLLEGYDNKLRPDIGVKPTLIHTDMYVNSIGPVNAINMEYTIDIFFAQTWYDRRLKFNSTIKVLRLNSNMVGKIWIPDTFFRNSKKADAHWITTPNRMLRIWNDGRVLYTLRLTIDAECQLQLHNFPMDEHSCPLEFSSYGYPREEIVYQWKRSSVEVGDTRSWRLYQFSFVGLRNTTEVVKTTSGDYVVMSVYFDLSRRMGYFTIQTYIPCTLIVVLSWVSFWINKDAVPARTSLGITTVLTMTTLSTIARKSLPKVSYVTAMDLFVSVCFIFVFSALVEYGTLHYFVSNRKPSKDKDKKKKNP
The data set can be described thus: Assay B: modulation of α5β2γ2 GABAA receptor, two-electrode voltage clamp in oocytes. The data set is classed as cell-based. The method, then:
Assay B: In vitro evaluation of modulation of α5β2γ2 GABAA receptor.
Modulatory efficacy of compounds of formula (I) is determined electrophysiological recordings in oocytes using the two-electrode voltage clamp (TEVC) technique. Oocytes are injected with cRNA for human GABAA receptor subunits α5, β2 and γ2 in a 3:1:3 ratio and modulatory efficacy is evaluated by co-applications with a submaximal EC5-20 GABA concentration (0.5 μM) termed GABA control. As a standard, the compounds are tested in five concentrations (3.16, 0.316, 0.0316, 0.00316 and 0.000316 μM) on each oocyte starting with the lowest concentration. Background subtracted peak current amplitudes are normalized to the respective GABA control current, converted to % change and depicted +/−S.E.M. as a function of increasing compound concentrations. Plotted datapoints are fitted to the empirical Hill equation using non-linear regression. 95% confidence intervals for maximal efficacy (Bottom) and potency (Log EC50) are derived from this fitting routine.
In general terms: Two-electrode voltage clamp is typically applied to oocytes expressing channels or transporters.

Data set [2] can be described thus: Metabolic stability in human liver microsomes (Human MST). The format is in vitro ADME. The conditions noted are these: pooled human liver microsomes, pH 7.6; human liver microsomes 1 mg/mL, 1 μM compound, NADPH 1 mM, 37° C.; read-out: Human MST t1/2. The method, then: Assessment of Metabolic Stability in Human Liver Microsomes (Human MST) The metabolic stability of the compounds according to the invention may be investigated as follows: The metabolic degradation of the test compound is assayed at 37° C. with pooled human liver microsomes. The final incubation volume of 100 μL per time point contains TRIS buffer pH 7.6 at room temperature (0.1 M), MgCl2 (5 mM), microsomal protein (1 mg/mL) and the test compound at a final concentration of 1 μM. Following a short pre-incubation period at 37° C., the reactions are initiated by addition of beta-nicotinamide adenine dinucleotide phosphate, reduced form (NADPH, 1 mM), and terminated by transferring an aliquot into solvent after different time points. After centrifugation (10000 g, 5 min), an aliquot of the supernatant is assayed by LCMS/MS for the amount of parent compound. The half-life (t½) is determined by the slope of the semi-logarithmic plot of the concentration-time profile.
A general note: Liver microsomes are vesicles of endoplasmic reticulum, rich in cytochrome P450 enzymes.

The Ki is the dissociation constant of the complex between target and ligand, obtained from inhibition or displacement. Low values mean higher affinity, high ones lower affinity.

Compound `Cc1nnn(-c2ccc(C(F)F)cc2)c1COc1ccc(-n2cnc(C(=O)N(C)C)c2)nn1` [Example 16] showed a Ki in data set [1] of 0.16 nM. Further, at α5β2γ2 GABAA receptor, the Assay B: GABAA α5β3γ2 Emax vs GABA came to 0%. Besides, the half-life at 1 μM in data set [2] is over 2.17 h.

For the origin of these results see patent publication US10941137B2, “Difluoromethyl-phenyl triazoles” (Boehringer Ingelheim International GmbH, priority 2018, dated 2021).
